Assay results: article PMC11822212, “High-throughput screening identifies Aurora kinase B as a critical therapeutic target for Merkel cell carcinoma” (Nature Communications, 2025)
Like-named read-outs stand apart in the source and are kept apart here.

Key:
MCC13 cells (VN-MCC) = experiment: qHTS cell viability (CellTiter-Glo, 72 h; primary and follow-up small molecule screen); assay type: cell-based, human
MCC26 cells (VN-MCC) = experiment: as above; assay type: cell-based, human
UISO cells (VN-MCC) = experiment: as above; assay type: cell-based, human; settings: UISO
WAGA cells (VP-MCC) = experiment: as above; assay type: cell-based, human; settings: WAGA
MKL-1 cells (VP-MCC) = experiment: as above; assay type: cell-based, human
MKL-2 cells (VP-MCC) = experiment: as above; assay type: cell-based, human
[1] = qHTS cell viability (CellTiter-Glo, 72 h; primary screen), control cell line; assay type: cell-based, human; settings: human, HACAT, read-out: Percent viability
[2] = as above; assay type: cell-based, human; settings: human, HEK293T, read-out: Percent viability
[3] = as above; assay type: cell-based; settings: human, read-out: Percent viability
[4] = tested on: VP-MCC cell lines (WAGA, MKL-1, MKL-2); experiment: qHTS cell viability, VP-MCC cell lines as a group (mean AUC, VP.MCC.avg); assay type: cell-based, human; settings: small molecule screen
[5] = tested on: MKL-1 (VP-MCC) xenograft tumors; design: method as in PMID 22572880; settings: prior report; cited from earlier work

`COCCn1c2c([n+](Cc3cnccn3)c1C)C(=O)c1ccccc1C2=O` [sepantronium bromide, reference compound] showed a Percent viability (MCC13 cells (VN-MCC); MCC-13, Log (M) -4.33646) of 8.9%, a Percent viability (MCC13 cells (VN-MCC); MCC-13, Log (M) -4.81358) of 6.8% and a Percent viability (MCC13 cells (VN-MCC); MCC-13, Log (M) -5.2907) of 19.3%. For the same molecule, the Percent viability (MCC13 cells (VN-MCC); MCC-13, Log (M) -5.76782) was 19.0%, the Percent viability (MCC13 cells (VN-MCC); MCC-13, Log (M) -6.24494) was 57.5% and the Percent viability (MCC13 cells (VN-MCC); MCC-13, Log (M) -6.72207) was 89.4%. It also gave a Percent viability (MCC13 cells (VN-MCC); MCC-13, Log (M) -7.19919) of 92.8%, a Percent viability (MCC13 cells (VN-MCC); MCC-13, Log (M) -7.67631) of 105.1% and a Percent viability (MCC13 cells (VN-MCC); MCC-13, Log (M) -8.15343) of 92.1%. For the same molecule, the Percent viability (MCC13 cells (VN-MCC); MCC-13, Log (M) -8.63055) was 110.1%, the Percent viability (MCC13 cells (VN-MCC); MCC-13, Log (M) -9.10767) was 104.4% and the Percent viability (MCC26 cells (VN-MCC); MCC-26, Log (M) -4.33646) was 12.7%. It also gave a Percent viability (MCC26 cells (VN-MCC); MCC-26, Log (M) -4.81358) of 14.1%, a Percent viability (MCC26 cells (VN-MCC); MCC-26, Log (M) -5.2907) of 15.5% and a Percent viability (MCC26 cells (VN-MCC); MCC-26, Log (M) -5.76782) of 13.0%. The Percent viability (MCC26 cells (VN-MCC); MCC-26, Log (M) -6.24494) was 32.6%, the Percent viability (MCC26 cells (VN-MCC); MCC-26, Log (M) -6.72207) was 74.3% and the Percent viability (MCC26 cells (VN-MCC); MCC-26, Log (M) -7.19919) was 94.8%. It also gave a Percent viability (MCC26 cells (VN-MCC); MCC-26, Log (M) -7.67631) of 100.8%, a Percent viability (MCC26 cells (VN-MCC); MCC-26, Log (M) -8.15343) of 100.6% and a Percent viability (MCC26 cells (VN-MCC); MCC-26, Log (M) -8.63055) of 101.9%. The Percent viability (MCC26 cells (VN-MCC); MCC-26, Log (M) -9.10767) was 102.7%, the Percent viability (UISO cells (VN-MCC); Log (M) -4.33646) was 1.7% and the Percent viability (UISO cells (VN-MCC); Log (M) -4.81358) was -3.1%. The Percent viability (UISO cells (VN-MCC); Log (M) -5.76782) was 0.3%, the Percent viability (UISO cells (VN-MCC); Log (M) -6.24494) was -7.3% and the Percent viability (UISO cells (VN-MCC); Log (M) -6.72207) was -3.8%. It also gave a Percent viability (UISO cells (VN-MCC); Log (M) -7.19919) of 3.4%, a Percent viability (UISO cells (VN-MCC); Log (M) -7.67631) of 44.8% and a Percent viability (UISO cells (VN-MCC); Log (M) -8.15343) of 99.6%. The Percent viability (UISO cells (VN-MCC); Log (M) -8.63055) was 102.4%, the Percent viability (UISO cells (VN-MCC); Log (M) -9.10767) was 104.0% and the Percent viability (WAGA cells (VP-MCC); Log (M) -4.33646) was 2.2%. The Percent viability (WAGA cells (VP-MCC); Log (M) -4.81358) was 2.7%, the Percent viability (WAGA cells (VP-MCC); Log (M) -5.2907) was 3.2% and the Percent viability (WAGA cells (VP-MCC); Log (M) -5.76782) was 3.6%. It also gave a Percent viability (WAGA cells (VP-MCC); Log (M) -6.24494) of 3.4%, a Percent viability (WAGA cells (VP-MCC); Log (M) -6.72207) of 4.1% and a Percent viability (WAGA cells (VP-MCC); Log (M) -7.19919) of 5.7%. The Percent viability (WAGA cells (VP-MCC); Log (M) -7.67631) was 15.6%, the Percent viability (WAGA cells (VP-MCC); Log (M) -8.15343) was 103.1% and the Percent viability (WAGA cells (VP-MCC); Log (M) -8.63055) was 106.2%. For the same molecule, the Percent viability (WAGA cells (VP-MCC); Log (M) -9.10767) was 107.0%, the Percent viability (MKL-1 cells (VP-MCC); MKL1, Log (M) -4.33646) was 4.1% and the Percent viability (MKL-1 cells (VP-MCC); MKL1, Log (M) -4.81358) was 5.1%. For the same molecule, the Percent viability (MKL-1 cells (VP-MCC); MKL1, Log (M) -5.2907) was 6.0%, the Percent viability (MKL-1 cells (VP-MCC); MKL1, Log (M) -5.76782) was 6.5% and the Percent viability (MKL-1 cells (VP-MCC); MKL1, Log (M) -6.24494) was 8.2%. The Percent viability (MKL-1 cells (VP-MCC); MKL1, Log (M) -6.72207) was 7.5%, the Percent viability (MKL-1 cells (VP-MCC); MKL1, Log (M) -7.19919) was 7.7% and the Percent viability (MKL-1 cells (VP-MCC); MKL1, Log (M) -7.67631) was 8.0%. For the same molecule, the Percent viability (MKL-1 cells (VP-MCC); MKL1, Log (M) -8.15343) was 17.1%, the Percent viability (MKL-1 cells (VP-MCC); MKL1, Log (M) -8.63055) was 55.6% and the Percent viability (MKL-1 cells (VP-MCC); MKL1, Log (M) -9.10767) was 97.8%. It also gave a Percent viability (MKL-2 cells (VP-MCC); MKL2, Log (M) -4.33646) of 5.0%, a Percent viability (MKL-2 cells (VP-MCC); MKL2, Log (M) -4.81358) of 6.0% and a Percent viability (MKL-2 cells (VP-MCC); MKL2, Log (M) -5.2907) of 6.6%. It also gave a Percent viability (MKL-2 cells (VP-MCC); MKL2, Log (M) -5.76782) of 7.9%, a Percent viability (MKL-2 cells (VP-MCC); MKL2, Log (M) -6.24494) of 7.7% and a Percent viability (MKL-2 cells (VP-MCC); MKL2, Log (M) -6.72207) of 7.4%. For the same molecule, the Percent viability (MKL-2 cells (VP-MCC); MKL2, Log (M) -7.19919) was 9.2%, the Percent viability (MKL-2 cells (VP-MCC); MKL2, Log (M) -7.67631) was 27.9% and the Percent viability (MKL-2 cells (VP-MCC); MKL2, Log (M) -8.15343) was 100.0%. The Percent viability (MKL-2 cells (VP-MCC); MKL2, Log (M) -8.63055) was 100.0%, the Percent viability (MKL-2 cells (VP-MCC); MKL2, Log (M) -9.10767) was 102.5% and the viability at 72 h, 15.4 µM ([1]; HACAT cells (control cell line), Log (M) -4.81358) was 21.2%. It also gave a viability at 72 h, 5.12 µM ([1]; HACAT cells (control cell line), Log (M) -5.2907) of 18.9%, a viability at 72 h, 1.71 µM ([1]; HACAT cells (control cell line), Log (M) -5.76782) of 48.7% and a viability at 72 h, 0.569 µM ([1]; HACAT cells (control cell line), Log (M) -6.24494) of 44.2%. The viability at 72 h, 190 nM ([1]; HACAT cells (control cell line), Log (M) -6.72207) was 35.1%, the viability at 72 h, 63.2 nM ([1]; HACAT cells (control cell line), Log (M) -7.19919) was 66.6% and the viability at 72 h, 46.1 µM ([1]; HACAT cells, Log (M) -4.33646) was 21.2%. For the same molecule, the viability at 72 h, 21.1 nM ([1]; HACAT cells, Log (M) -7.67631) was 100%, the viability at 72 h, 7.02 nM ([1]; HACAT cells, Log (M) -8.15343) was 98.2% and the viability at 72 h, 2.34 nM ([1]; HACAT cells, Log (M) -8.63055) was 88.9%. The viability at 72 h, 0.78 nM ([1]; HACAT cells, Log (M) -9.10767) was 104%, the viability at 72 h, 15.4 µM ([2]; HEK293T cells (control cell line), Log (M) -4.81358) was 1% and the viability at 72 h, 5.12 µM ([2]; HEK293T cells (control cell line), Log (M) -5.2907) was -4.1%. It also gave a viability at 72 h, 1.71 µM ([2]; HEK293T cells (control cell line), Log (M) -5.76782) of -3.3%, a viability at 72 h, 63.2 nM ([2]; HEK293T cells (control cell line), Log (M) -7.19919) of -1.7% and a viability at 72 h, 46.1 µM ([2]; HEK293T cells, Log (M) -4.33646) of -1.2%. The viability at 72 h, 21.1 nM ([2]; HEK293T cells, Log (M) -7.67631) was 23.3%, the viability at 72 h, 7.02 nM ([2]; HEK293T cells, Log (M) -8.15343) was 104% and the viability at 72 h, 2.34 nM ([2]; HEK293T cells, Log (M) -8.63055) was 100%. The viability at 72 h, 0.78 nM ([2]; HEK293T cells, Log (M) -9.10767) was 100%, the viability at 72 h, 46.1 µM ([3]; CRL-7250 cells (control cell line), CRL-7250, Log (M) -4.33646) was -4.6% and the viability at 72 h, 15.4 µM ([3]; CRL-7250 cells (control cell line), CRL-7250, Log (M) -4.81358) was 10.1%. For the same molecule, the viability at 72 h, 5.12 µM ([3]; CRL-7250 cells (control cell line), CRL-7250, Log (M) -5.2907) was -5.4%, the viability at 72 h, 1.71 µM ([3]; CRL-7250 cells (control cell line), CRL-7250, Log (M) -5.76782) was -4.8% and the viability at 72 h, 569 nM ([3]; CRL-7250 cells (control cell line), CRL-7250, Log (M) -6.24494) was -8.6%. It also gave a viability at 72 h, 190 nM ([3]; CRL-7250 cells (control cell line), CRL-7250, Log (M) -6.72207) of 39.2%, a viability at 72 h, 63.2 nM ([3]; CRL-7250 cells (control cell line), CRL-7250, Log (M) -7.19919) of 65.6% and a viability at 72 h, 21.1 nM ([3]; CRL-7250 cells, CRL-7250, Log (M) -7.67631) of 101%. For the same molecule, the viability at 72 h, 2.34 nM ([3]; CRL-7250 cells, CRL-7250, Log (M) -8.63055) was 100%, the “viability of VP-MCC (in words)” value [4] was “potent compound for inhibiting the viability of VP-MCC” and the “growth of MKL-1 (VP-MCC) xenograft tumors (in words)” value [5] was “slowed the growth of MKL-1 (VP-MCC) xenograft tumors”.
